Key:
[1] = test system: A375 (malignant melanoma) cell line; assay: CellTiter-Glo luminescent cell viability assay, A375; format: cell-based, human; settings: Homo sapiens, A-375; for viability at 4 µM: A375, compound at 4 μM; for viability at 4 µM / viability at 10 µM: 72 h; for viability at 10 µM: A375, compound at 10 μM
In short: (§1)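 Adherent cells grow overnight, or suspension cells are seeded 1 h ahead; compound dilutions are then added and plates incubated 72 h at 37 °C. After 30 min at room temperature, CellTiter-Glo reagent is added and luminescence recorded. EC50 derives from signal relative to diluent control.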

[2] = test system: 786-O (renal adenocarcinoma) cell line; assay: CellTiter-Glo luminescent cell viability assay, 786-O; format: cell-based, human; settings: Homo sapiens, 786-0; for viability at 4 µM / viability at 10 µM: 786-O, 72 h; for viability at 4 µM: compound at 4 μM; for viability at 10 µM: compound at 10 μM
In short: as §1

[3] = test system: Huh7 (hepatocellular carcinoma) cell line; assay: CellTiter-Glo luminescent cell viability assay, Huh7; format: cell-based, human; settings: Homo sapiens, Huh-7; for viability at 4 µM: Huh7, compound at 4 μM; for viability at 4 µM / viability at 10 µM: 72 h; for viability at 10 µM: Huh7, compound at 10 μM
In short: (§2)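 Cells were cultured at 37 °C, 5% CO2 with 10% FBS; adherent lines were plated overnight, suspension MOLM-14 plated 1 h before dosing. Compounds in H2O or DMSO were added at various concentrations for 72 h, and viability was read by luminescence. EC50 is the dose reducing signal to 50% of diluent control.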

[4] = test system: HepG2 (hepatocellular carcinoma) cell line; assay: CellTiter-Glo luminescent cell viability assay, HepG2; format: cell-based, human; settings: Homo sapiens; for viability at 4 µM / viability at 10 µM: HepG2, HepG, 72 h; for viability at 4 µM: compound at 4 μM; for viability at 10 µM: compound at 10 μM
In short: as §2

[5] = test system: PANC-1 (prancreatic carcinoma) cell line; assay: CellTiter-Glo luminescent cell viability assay, PANC-1; format: cell-based; settings: Homo sapiens; for viability at 4 µM: PANC-1, 4 μM; for viability at 4 µM / viability at 10 µM: 72 h, % of signal of diluent-treated cultures; for viability at 10 µM: PANC-1, 10 μM
Method: All cell lines were maintained in medium containing 1% penicillin-streptomycin (Dutscher, P06-07100) and 10% Fetal Bovine Serum (Hyclone Dutscher, RZK35922) cultured at 37° C. with 5% CO2. HepG2 (hepatocellular carcinoma), cell line was cultured in Dulbecco's modified Eagle's medium low glucose (Gibco, 21885025), Huh7 (hepatocellular carcinoma), HCT-116 (colorectal carcinoma), PANC-1 (prancreatic carcinoma) and A375 (malignant melanoma) cell lines were cultured in Dulbecco's modified Eagle's medium (Dutscher, L0103). MOLM-14 (acute myeloid leukemia) cell line was maintained in MEM alpha medium (Gibco, 22561-021). 786-0 (renal adenocarcinoma) cell lines were maintained in RPMI 1640 medium (Dutscher, L0498).
Cell viability was measured using the CellTiter-Glo® luminescent cell viability assay as described by the manufacturer (Promega, Ref G7571) using an Infinite F200Pro luminometer (Tecan). Briefly, for adherent cells, cells were plated onto 96-well plates (white with clear bottom) in 90 μL of media per well and were allowed to grow overnight before the assay. For cells growing in suspension, cells were plated onto 96-well plates 1 h before the assay.
Compounds were resuspended in H2O or DMSO and added at different concentrations to each well, and cell cultures were incubated for 72 h. Each diluent (H2O or DMSO) were used as a control, and all compounds were tested in a constant percentage of H2O or DMSO. On the day of the reading, plates are equilibrated 30 min at room temperature before the addition of 100 μL of CellTiter-Glo® and luminescence was measured using an Infinite F200Pro (Tecan). % cell viability were expressed as a percentage of the signal obtained for cell cultures treated with diluent. EC50 values were determined as the dose of compound required to reduce luminescent values to 50% of the signal obtained for cell cultures treated with diluent. The experimental data were analyzed using a computer program, Graphpad Prism v5 (GraphPad Software, Inc. La Jolla, Calif.). All points were at least done in duplicate.

[6] = test system: MOLM-14 (acute myeloid leukemia) cell line; assay: CellTiter-Glo luminescent cell viability assay, MOLM-14; format: cell-based, human; settings: Homo sapiens; for viability at 4 µM: MOLM-14, compound at 4 μM; for viability at 4 µM / viability at 10 µM: 72 h; for viability at 10 µM: MOLM-14, compound at 10 μM
In short: as §2

[7] = test system: HCT-116 (colorectal carcinoma) cell line; assay: CellTiter-Glo luminescent cell viability assay, HCT-116; format: cell-based, human; settings: Homo sapiens; for viability at 4 µM: HCT-116, compound at 4 μM; for viability at 4 µM / viability at 10 µM: 72 h; for viability at 10 µM: HCT-116, compound at 10 μM
In short: as §1

Row | SMILES | viability at 4 µM [1] | viability at 10 µM [1] | viability at 4 µM [2] | viability at 10 µM [2] | viability at 4 µM [3] | viability at 10 µM [3] | viability at 4 µM [4] | viability at 10 µM [4] | viability at 4 µM [5] | viability at 10 µM [5] | viability at 4 µM [6] | viability at 10 µM [6] | viability at 4 µM [7] | viability at 10 µM [7] | further results
1 | N#Cc1c(NCc2ccc(Cl)cc2)nc2ccccc2c1N1CCC(NC2CCOCC2)CC1 [Compound 3180CN, 2-(4-chlorobenzylamino)-3-cyano-4-{4-[(tetrahydro-2H-pyran-4-yl)amino]piperidin-1-yl}quinoline] | 88.6% | 0.3% | 69.7% | 0.4% | 76.5% | 0.4% | 78.4% | 0.4% | 94.9% | 58.9% | 92.3% | 22.7% | 59.5% | 0.2% | EC50 ([1]; A375 cell line, 72 h incubation, CellTiter-Glo, read-out: EC50, growth inhibition of A375): 5 to 10 µM; EC50 ([2]; 786-O cell line, 72 h incubation, CellTiter-Glo, read-out: EC50, growth inhibition of 786-O): 5 to 10 µM; EC50 ([3]; Huh7 cell line, 72 h incubation, CellTiter-Glo, read-out: EC50, growth inhibition of Huh7): 5 to 10 µM; EC50 ([4]; HepG2 cell line, 72 h incubation, CellTiter-Glo, read-out: EC50, growth inhibition of HepG2): 5 to 10 µM; EC50 ([5]; PANC-1 cell line, 72 h incubation, CellTiter-Glo, read-out: EC50 (growth inhibition assay of PANC-1 cell line)): 5 to 10 µM; EC50 ([6]; MOLM-14 cell line, 72 h incubation, CellTiter-Glo, read-out: EC50, growth inhibition of MOLM-14): 5 to 10 µM; EC50 ([7]; HCT-116 cell line, 72 h incubation, CellTiter-Glo, read-out: EC50, growth inhibition of HCT-116): 5 to 10 µM
2 | N#Cc1c(NCc2ccc(Cl)cc2)nc2ccccc2c1N1CCC(NC2CCOCC2)C1 (stereo not drawn) [Compound 136CN, 2-(4-chloro-benzylamino)-3-cyano-4-{3-[(tetrahydro-2H-pyran-4-yl)-amino]pyrroli-din-1-yl}quinoline] | 110% | 17.4% | 75.7% | 21.8% | 87.6% | 50.5% | 88.6% | 44.1% | 91.7% | 63.6% | 95.7% | 32% | 73.3% | 17.4% | 
3 | N#Cc1c(NCc2ccc(Cl)cc2)nc2ccccc2c1N1CCCC(N2CCCC2)C1 (stereo not drawn) [Compound 176CN, 2-(4-chlorobenzylamino)-3-cyano-4-[3-(pyrrolidin-1-yl)piperidin-1-yl]quinoline] | 114% | 65.4% | 89.8% | 39.3% | 96.4% | 64.7% | 93% | 60.2% | 93.2% | 70.6% | 95.6% | 75.2% | 84.3% | 42.7% | 
4 | CC(C)(C)NC1CCN(c2c(C#N)c(NCc3ccccn3)nc3ccccc23)CC1 [Compound 3308CN, 2-[(pyridin-2-ylmethyl)amino]-3-cyano-4-[4-(tert-butylamino)piperidin-1-yl]quinoline] | 96.3% | 67.7% | 101% | 81.1% | 88.6% | 74.2% | 92.6% | 76.5% | 102% | 99.1% | 85.8% | 57.1% | 72.8% | 32.9% | 
5 | CC(C)(C)NC1CCN(c2c(F)c(Nc3cccc(Nc4nccc(C(F)(F)F)n4)c3)nc3ccccc23)CC1 [Compound 540F, 2-[3-(4-trifluoromethylpyrimidin-2-ylamino)phenylamino]-3-fluoro-4-(4-tert-butylaminopiperidin-1-yl)quinoline] | 0.4% | 0.3% | 0.8% | 0.3% | 43.3% | 59.4% | 0.3% | 0.2% |  |  | 8.8% | 0.3% | 0.4% | 0.3% | 
